What was measured:
[1] = system: lipid peroxides (as malondialdehide); assay: Oxidative stress in midguts of bees fed bee candy (lipid peroxides as MDA, thiobarbituric acid); assay type: in vivo, honey bees; settings: 3 days, control = 100%, 4.3 µg/g maltol, 0.41 µg/g p-coumaric acid, 0.45 µg/g caffeic acid where present (mixture row prints µg/l)
Experimental: (§1) Optimization of the ratio of hydroxycinnamic acids, p-coumaric and caffeic, and maltol, was obtained by using experiments designed according to response surface technique, using the Software Design-Expert® v. 9.0 (Stat-Ease, Minneapolis, MN, USA). Two bioassays were used, wherein the effect of different combinations of maltol and hydroxycinnamic acids, p-coumaric and caffeic, were determined, on fructophilic lactobacteria growth and on oxidative stress and on the induction of CYP9Q, enzyme from cytochrome P450 monooxigenase class, with key role in defense systems of bees (Mao et al., 2013, PNAS, 110: 8842-8846). […] After three days bees midguts were taken by dissection, frozen in liquid nitrogen and stored at -80 ° C, to extract total RNA for quantitative RT-PCR analysis of CYP9Q3 expression and for the determination of lipid peroxides (as malondialdehide) as markers of oxidative stress. RNA was extracted from frozen abdomens by TRIzol method (Invitrogen, Thermo Fisher Scientific, Waltham, MA, USA), treated with DNAse (Ambion® protocol, Thermo Fisher Scientific) and used for the quantitative analysis of the expression CYP9Q by RT-PCR, as described by Mao et al., 2011 (PNAS, 108, 12657-12662). Lipid peroxides were determined as malondialdehid ? , with tiobarbituric acid (Rael et al., 2004, J. Biochem. Mol. Biol, 3, 749-752).

[2] = system: Lactobacillus kunkeei DSM 12361; assay: Growth of fructophilic lactobacteria on FYP broth with glucose-fructose syrup; assay type: cell-based; settings: FYP medium with glucose-fructose syrup; 21.5 mg/l maltol, 2.05 mg/l p-coumaric acid, 2.25 mg/l caffeic acid where present
Experimental: Optimization of the ratio of hydroxycinnamic acids, p-coumaric and caffeic, and maltol, was obtained by using experiments designed according to response surface technique, using the Software Design-Expert® v. 9.0 (Stat-Ease, Minneapolis, MN, USA). Two bioassays were used, wherein the effect of different combinations of maltol and hydroxycinnamic acids, p-coumaric and caffeic, were determined, on fructophilic lactobacteria growth and on oxidative stress and on the induction of CYP9Q, enzyme from cytochrome P450 monooxigenase class, with key role in defense systems of bees (Mao et al., 2013, PNAS, 110: 8842-8846). […] The ratio 4.1 parts p-coumaric acid, 4.5 parts caffeic acid and 43 parts maltol, determined as being optimal in terms L. kunkeei development enhancement, was re-tested in laboratory conditions, using 400 g/l glucose-fructose syrup (Isosugar 031™, Tate and Lyle, London, United Kingdom, 74.8% dry matter, 50.2% of which is fructose), instead of 300 g/l of fructose on FYP broth. […]

CYP9Q = CYP9Q induction in bees fed bee candy (quantitative RT-PCR); assay type: in vivo, honey bees; settings: 3 days, control = 100%, 4.3 µg/g maltol, 0.41 µg/g p-coumaric acid, 0.45 µg/g caffeic acid where present (mixture row prints µg/l)
Experimental: as §1

Cc1occc(=O)c1O [maltol, 3-Hydroxy-2-methyl-4H-piran-4-one]
Oxidative stress MDA (%) [1]: 123,7% | Culture development (% control) [2]: 76.8 % control | Lactic acid production (% control) [2]: 67,9 % control | Inducing CYP9Q (%) (CYP9Q): 102.9%

Reference: patent publication EP2949220A1, “Nutraceutic supplement for bees families and process for its administration” (SC Teso Spec SRL, priority 2014, dated 2015)
